In patent US5124150A:

Assays:
[1] = test system: human immunodeficiency virus (HIV) LAV/BRU; conditions: CEM-F cells; reduces viral replication by 50%
Protocol: AZT was included as a reference compound. The methodology used in this assay is described below:
The cells and the virus were grown in LAV/CEM medium. The medium consists of RPMI 1640, supplemented with 1% L-glutamine, 100 U/ml of Penicillin, 100 μg/ml Streptomycin, 2 μg/ml Polybrene and 10% heat-inactivated fetal bovine serum (HyClone Labs). […] The LAV/BRU of human immunodeficiency virus (HIV) was obtained from Dr. L. Montagnier, Institute Pasteur, Paris, France. The virus was adapted to CEM cells, and infectious virus stocks were stored as cell-free supernatant fluids in 1 ml aliquots in liquid nitrogen. The titer of the stock was determined by an end point titration method using CEM cells in 96-well microtiter plates. The titration was done with ten replicates for each point, and the 50% tissue culture infective dose (TCID50) was calculated using the method of Reed and Muench (Amer. J. Hygiene, 27/3 (1938) 493-497).
25 The CEM cells (1.5×10^5 cells/ml) were placed in 96-well plates and incubated with virus for 45 minutes. After 45 minutes each compound was added in quadruplicate. […] The OD readings (absorbance at 450/630 nm) fall into three categories: Experimentals=values from wells containing cells, viral inoculum and drug; Controls=values from wells with cells and virus (100%); and Background=values from wells with viral inoculum alone. […]

solubility in solvents = assay type: physicochemical
uninfected CEM cells = conditions: human, 7200 min
Protocol: The cells and the virus were grown in LAV/CEM medium. The medium consists of RPMI 1640, supplemented with 1% L-glutamine, 100 U/ml of Penicillin, 100 μg/ml Streptomycin, 2 μg/ml Polybrene and 10% heat-inactivated fetal bovine serum (HyClone Labs).
The toxicities of the drugs were tested against uninfected CEM cells. The CEM cells were plated as described above, and culture for five days in the presence or absence of drugs. On day five 1 μCi/well of ^3 H-thymidine was added, and cells were harvested 3 hours later. The results are expressed as toxic dose 50 (TD50) and represent the amount of drug necessary to reduce the cell proliferation by 50% as measured through thymidine incorporation.

CEM-SS cells = assay: cellular toxicity in CEM-SS cells, XTT assay; assay type: cell-based; conditions: human, 144 h
Excerpt: CEM-SS cells were obtained from Owen Weislow at the National Cancer Institute.

[2] = test system: reverse transcriptase (RTase) derived from avian myeloblastosis virus (AMV); assay type: biochemical; conditions: concentrations higher than 3 μg/ml; 1 unit of AMV RTase
HIV antigen = assay: expression of HIV antigen in infected MT-4 cells by immunofluorescence; assay type: cell-based; conditions: HIV-infected MT-4 cells; concentration higher than 50 μg/ml
Protocol: Expression of HIV antigen was examined by immunofluorescence. When MT-4 cells were infected with HIV, viral antigen positive cells increased with incubation time and all the cells became positive on day 6 after infection.

| SMILES | ED50, p24gag antigen capture assay [1] [µg] | solubility in dimethylformamide and dimethyl sulfoxide (solubility in solvents) | TD50, thymidine incorporation (uninfected CEM cells) [µg] | TD50, XTT assay (CEM-SS cells) [µg/mL] | inhibition of AMV RTase activity [2] | HIV antigen positive cells (HIV antigen) |
| --- | --- | --- | --- | --- | --- | --- |
| C/C1=C\C=C\C2(C)C=C(CO[C@H]3O[C@H](CO)[C@H](O)[C@H](O)[C@H]3O)C(C)CC23OC(O)C(C3=O)C(O)/C=C/C2(C)C=C(C=O)C(C)CC23OC(O)C(C3=O)C(O)/C(C)=C/C=C/C2C=C(CO[C@H]3O[C@H](CO)[C@H](O)[C@H](O)[C@H]3O)C(C)CC23OC(O)C(C3=O)C(O)/C=C/C2(C)C=C(C=O)C(C)CC23OC(O)C(C3=O)C1O (some centres unmarked) | 3.2 | soluble | > 100 | 300 | more than 95% | less than 1% |
| C/C1=C\C=C\C2C=C(CO[C@H]3O[C@H](CO)[C@H](O)[C@H](O)[C@H]3O)C(C)CC23OC(O)C(C3=O)C(O)/C=C/C2(C)C=C(CO)C(C)CC23OC(O)C(C3=O)C(O)/C(C)=C/C=C/C2(C)C=C(CO[C@H]3O[C@H](CO)[C@H](O)[C@H](O)[C@H]3O)C(C)CC23OC(O)C(C3=O)C(O)/C=C/C2(C)C=C(C=O)C(C)CC23OC(O)C(C3=O)C1O (some centres unmarked) | 2.5 | soluble | > 100 | 200 | – | – |
| Cc1cn([C@H]2C[C@H](N=[N+]=[N-])[C@@H](CO)O2)c(=O)[nH]c1=O [AZT, reference compound] | – | – | 4.2 | – | – | – |
